The values that follow come from patent publication US6461997B1, “Triazole sulfones having herbicidal activity” (Monsanto Technology LLC, priority 1999, dated 2002).

Data set [1] relates to IPOSS (annual morningglory). Put plainly: Pre-emergence herbicidal activity, warm season. In kind it is in vivo, Ipomoea spp. The note with it: Ipomoea, pre-emergence application, read-out: Percent inhibition, weed IPOSS. As for the experimental part: (§1) Tables 5 to 8 summarize results of tests conducted as described below to determine the pre-emergence herbicidal activity, in the form of a GR80 value, of illustrative compounds of this invention. […] Compounds of the invention were typically applied at rates of 300, 100, 30, and 10 g/ha. Where herbicidal activity was evident but 80% inhibition was not achieved at the highest rate tested, an asterisk (*) is shown in the following tables.
(§2) The pre-emergence tests were conducted by the following procedure. Topsoil was sieved to pass through a 1.27 cm screen. Fertilizer was added to the topsoil and the mixture was then sterilized by heating. The topsoil mixture was placed in a pot and compacted to a depth of 1.0 to 1.25 cm from the top of the pot. Seeds of each of several monocotyledonous and dicotyledonous annual plant species were placed on top of the soil. Additional soil was subsequently placed over the seeds to level-fill the pot. A known amount of each test compound dissolved or suspended in an appropriate organic solvent was diluted with a 50:50 mix of acetone and water and applied to the surface of the soil. After treatment the plants were placed in a greenhouse where they received 0.64 cm of overhead irrigation. All subsequent watering consisted of a light overhead mist and/or subirrigation as needed for germination and growth. Tables 5 and 6 below relate to warm season plant species which were placed after pre-emergence treatment in a greenhouse with a 30/21° C. day/night temperature regime. Tables 7 and 8 below relates to cool season plant species placed after pre-emergence treatment in a greenhouse or growth chamber with an 18/13° C. day/night temperature regime.
(§3) Approximately 14 days after planting and treating, the plants were observed and herbicidal efficacy recorded as percent inhibition by comparison with untreated plants.
(§4) The plant species usually regarded as weeds which were utilized in the tests are identified in the tables below according to the following legend, in which “d” indicates a dicotyledonous species and “m” a monocotyledonous species. All monocotyledonous species included in the tests herein are grasses.

The subject of a further data set is XANST (cocklebur). Put plainly: Pre-emergence herbicidal activity, warm season. In kind it is in vivo. Particulars: Xanthium strumarium, pre-emergence application, read-out: Percent inhibition, weed XANST. As for the experimental part:
as §1, §2, §3, §4

The next data set deals with KCHSC (kochia). Put plainly: Post-emergence herbicidal activity, cool season. In kind it is in vivo, Kochia scoparia. Particulars: abraded plants sprayed; GR80 = lowest tested rate (300, 100, 30, 10 g/ha) with 80% or greater inhibition; approx. 14 days after treatment; 18/13° C. As for the experimental part:
(§5) In another set of tests, the post-emergence activity of compounds of this invention was evaluated on the cool season species listed above. The following procedure was used.
(§6) A pre-prepared topsoil mixture (described above) was placed in a pot and compacted to a depth of 1.0 to 1.25 cm from the top of the pot. Seeds of each of several monocotyledonous and dicotyledonous annual plant species were placed on top of the soil. The seeds were covered with a mixture of 50% topsoil and 50% Rediearth™ in sufficient quantity to level-fill the pots. The pots were then placed on a greenhouse bench and subirrigated as needed.
(§7) When plants growing from the seeds had emerged and reached a suitable growth stage for post-emergence treatment, typically 9 to 14 days after planting, above-ground parts of the plants were subjected to a pre-treatment involving abrasion to create greater opportunity for foliar uptake of subsequently applied compounds. Abrasion was performed using garnet 200w particles applied with a Sears Craftsman hand-held sandblaster operated at approximately 850 kPa (50 psig) pressure. […]
(§8) After treatment the plants were placed in a greenhouse with an 18/13° C. day/night temperature regime and were subsequently watered as needed for growth. Approximately 14 days after treatment, the plants were observed and herbicidal efficacy recorded as percent inhibition by comparison with control plants. […]

For data set [2], the system named is VERPE (creeping speedwell). Put plainly: Post-emergence herbicidal activity, cool season. In kind it is in vivo, Veronica persicaria. The note with it: abraded plants sprayed; GR80 = lowest tested rate (300, 100, 30, 10 g/ha) with 80% or greater inhibition; approx. 14 days after treatment; 18/13° C. As for the experimental part:
as §5, §6, §7, §8

The subject of a further data set is rice (ORYSA). The data set is described as follows: Selectivity test, pre-emergence, warm season crop. It is filed as in vivo. The note with it: Oryza sativa, pre-emergence application, read-out: Percent inhibition, crop ORYSA. As for the experimental part: as §2, §3
(§9) Additional pre-emergence and PPI tests were conducted by the procedures described above, on warm and cool season weed species in the presence of crop species, to assess herbicidal selectivity. Crop species included in warm season tests were corn (Zea mays, ZEAMX), rice (Oryza sativa, ORYSA) and soybean (Glycine max, GLYMX). Crop species included in cool season tests were wheat (Triticum aestivum, TRZAW), barley (Hordeunm vulgare, HORVX) and oilseed rape (Brassica napus, BRSNS).
(§10) Tables 15 and 16 relate to pre-emergence and PPI tests respectively on warm season species. Table 17 relates to pre-emergence tests on cool season species.

Another data set concerns soybean (GLYMX). Put plainly: Selectivity test, pre-emergence, warm season crop. It is filed as in vivo. The note with it: Glycine max, pre-emergence application, read-out: Percent inhibition, crop GLYMX. As for the experimental part: as §2, §3, §9, §10
Data set [3] deals with SEBEX. Put plainly: Pre-emergence herbicidal activity, warm season (selectivity test, Table 15). It is filed as in vivo. Particulars: pre-emergence application, read-out: Percent inhibition, weed SEBEX. As for the experimental part:
as §2, §3, §9, §10

Data set [4] deals with SEBEX. Put plainly: Pre-plant incorporated (PPI) herbicidal activity, warm season. In kind it is in vivo. Particulars: PPI application, read-out: Percent inhibition SEBEX. As for the experimental part: as §9
Data set [5] deals with AEGCY (jointed goatgrass). The data set is described as follows: Pre-emergence herbicidal activity, cool season. In kind it is in vivo, Aegilops cylindrica. Particulars: GR80 = lowest tested rate (300, 100, 30, 10 g/ha) with 80% or greater inhibition; approx. 14 days after treating; 18/13° C. As for the experimental part: as §1, §2, §3, §4
The next data set has as its system SASKR (russian thistle). Put plainly: Post-emergence herbicidal activity, cool season. It is filed as in vivo, Salsola kali. The note with it: abraded plants sprayed; GR80 = lowest tested rate (300, 100, 30, 10 g/ha) with 80% or greater inhibition; approx. 14 days after treatment; 18/13° C. As for the experimental part:
as §5, §6, §7, §8

The term inhibition denotes the drop in the measured response relative to a control, in per cent. The term melting point denotes the temperature of the solid-liquid transition. In the case of `CCN(CC)C(=O)n1cnc(S(=O)(=O)C(F)(F)Br)n1` [Example 1, 3-(bromodifluoromethylsulfonyl)-1-(N,N-diethylcarbamoyl)-1,2,4-triazole], the melting point is 74 to 75 °C. Moreover, in [1], the inhibition at 10 g/ha worked out at 0%, the inhibition at 30 g/ha stood at 0%, the inhibition at 100 g/ha is 0% and the inhibition at 300 g/ha was determined as 0%. Moreover, in [1], the inhibition at 900 g/ha came to 0%. Moreover, in the data set on XANST (cocklebur), the inhibition at 10 g/ha turned out to be 0% and the inhibition at 30 g/ha amounted to 0%. The “Post-emergence activity (GR80) KCHSC” value in the data set with KCHSC (kochia) came to 100 g/ha. The “Post-emergence activity (GR80) VERPE” value in [2] came out at 300 g/ha. In the data set with rice (ORYSA), the inhibition at 10 g/ha stood at 0%, the inhibition at 30 g/ha stood at 0%, the inhibition at 100 g/ha is 0% and the inhibition at 900 g/ha is 10%. In the data set with soybean (GLYMX), the inhibition at 10 g/ha came to 0%, the inhibition at 30 g/ha came out at 0%, the inhibition at 100 g/ha stood at 0% and the inhibition at 900 g/ha was 0%. Also, in the data set on SEBEX [3], the inhibition at 10 g/ha was 0%, the inhibition at 30 g/ha worked out at 0%, the inhibition at 100 g/ha is 0% and the inhibition at 300 g/ha amounted to 0%. Besides, the inhibition at 900 g/ha in the data set with SEBEX [3] was 0%. For the same molecule, in the data set with SEBEX [4], the inhibition at 10 g/ha amounted to 0%, the inhibition at 30 g/ha amounted to 0%, the inhibition at 300 g/ha was determined as 0% and the inhibition at 900 g/ha was 20%. Moreover, the inhibition at 100 g/ha in the data set with SEBEX [4] (100 g/ha) stood at 0%.
Consider `CCN(CC)C(=O)n1cnc(S(=O)(=O)C(F)(F)C(F)(F)Br)n1` [Example 4], for which the “Pre-emergence activity (GR80) AEGCY” value in data set [5] is listed as “* (activity observed, at least at highest rate, but <80% inhibition)”.
In turn, `CCN(CC)C(=O)n1cnc(S(=O)(=O)C(F)F)n1` [Example 15, 1-(N,N-diethylcarbamoyl)-3-(difluoromethylsulfonyl)-1,2,4-triazole] had a melting point of 58 to 59 °C. Moreover, in [1], the inhibition at 10 g/ha turned out to be 0%, the inhibition at 30 g/ha was 0%, the inhibition at 100 g/ha came out at 0% and the inhibition at 300 g/ha is 0%. Also, the inhibition at 900 g/ha in data set [1] is 0%. Besides, in the data set with XANST (cocklebur), the inhibition at 10 g/ha was 0% and the inhibition at 30 g/ha was found to be 0%. The inhibition at 100 g/ha in the data set on XANST (cocklebur) (100 g/ha) was determined as 0%. The inhibition at 300 g/ha in the data set with XANST (cocklebur) (300 g/ha) was 0%. In the data set with KCHSC (kochia), the “Post-emergence activity (GR80) KCHSC” value is 100 g/ha. In addition, the “Post-emergence activity (GR80) SASKR” value in the data set on SASKR (russian thistle) is given as 100 g/ha. In the data set on rice (ORYSA), the inhibition at 10 g/ha was 0%, the inhibition at 30 g/ha is 0%, the inhibition at 100 g/ha is 0% and the inhibition at 900 g/ha was found to be 0%. For the same molecule, the inhibition at 300 g/ha in the data set with rice (ORYSA) (300 g/ha) was 0%. Besides, in the data set on soybean (GLYMX), the inhibition at 10 g/ha worked out at 0%, the inhibition at 30 g/ha was found to be 0%, the inhibition at 100 g/ha was 0% and the inhibition at 900 g/ha amounted to 10%. Moreover, in the data set on soybean (GLYMX) (300 g/ha), the inhibition at 300 g/ha worked out at 0%. For the same molecule, in the data set with SEBEX [3], the inhibition at 10 g/ha was found to be 0%, the inhibition at 30 g/ha came out at 0%, the inhibition at 100 g/ha turned out to be 0% and the inhibition at 300 g/ha is 0%. In addition, in the data set on SEBEX [3], the inhibition at 900 g/ha was determined as 35%. For the same molecule, in the data set with SEBEX [4], the inhibition at 10 g/ha worked out at 0%, the inhibition at 30 g/ha was 0%, the inhibition at 300 g/ha was 0% and the inhibition at 900 g/ha came to 50%.
